Read-outs that look alike come from different tables or passages of the source.
Experiments:
PP2A = PP2A (Homo sapiens, UniProt P67775); details: cited from earlier work
ChREBP = assay: Gel shift of purified ChREBP after incubation with PKA/PP2A in vitro; assay type: biochemical, rat; details: okadaic acid 10 nM
Description: Gel shift assay. Gel mobility shift assays were performed as described by Liu et al. (Liu et al. (1993) J Biol Chem 268, 12787-12795). Double-stranded oligonucleotides (Table 1) were prepared by mixing equal amounts of the complementary single-stranded DNAs in 50 mM NaCl, heating to 70° C. for 15 min, and cooling to room temperature. The annealed oligonucleotides were labeled with ^32P in the presence of [γ^32P]-ATP (Amersham Pharmacia) and T4 polynucleotide kinase (New England Biolabs). Binding reactions were carried out in reaction mixture containing 20 mM Hepes (pH 7.9), 50 mM KCl, 5 mM DTT, 0.2 mM EDTA, 0.5 mM PMSF, 10% glycerol, 1 μg/μl of poly(dI-dC) (Amersham Pharmacia) and 1 μg/μl of nuclear extract. The reaction mixture was incubated at room temperature for 30 min and DNA-protein complexes were separated by electrophoresis in a 4.5% nondenaturing polyacrylamide gel.
Purified ChREBP was incubated with PKA and/or PP2A in vitro and measured by gel-shift analysis with the [^32P]-radiolabeled WT oligonucleotide. Purified ChREBP was incubated for 20 min with ATP (1 mM), PKA (0.1 U/μl), 0.2 U/μl PKI, 0.025 U/μl PP2A and the PP2A inhibitor, okadaic acid (10 nM).

[1] = target: T1, cytosolic Xu-5-P activated PPase (Rattus norvegicus, UniProt P63331); assay: Protein phosphatase assay, cytosolic Xu-5-P activated PPase of liver; assay type: biochemical; details: for inhibition of cytosolic PPase (MonoQ eluate): okadaic acid concentration not stated (below 10 nM)
T1 construct: from tissue; host or cells: rat liver cytosolic extract, DEAE-cellulose then Mono Q
Description: Liver was homogenized in a motor-driven Potter-Elvehjem homogenizer in 1 volume of extraction buffer containing 10 mM Hepes (pH 7.9), 10 mM KCl, 0.1 mM EDTA, 0.74 mM spermidine, 0.25 M sucrose, 50 mM imidazole, 1 mM dithiothreitol (DTT), 4 mM phenylmethanesulfonyl fluoride, and 1 mM benzamidine, and the extract was centrifuged at 10,000×g for 30 min.
(§1) Synthetic peptides corresponding to amino acids #187-201 ([…] “P1” peptide) (SEQ ID NO:64), #556-573 ([…], “P4” peptide) (SEQ ID NO:65), and #655-674 ([…]; “P3” peptide) (SEQ ID NO:66), of ChREBP were prepared by the Peptide Synthesis Service of University of Texas Southwestern Medical Center. These peptides were phosphorylated by 10 U of PKA for 6 h at 30° C. P4 peptide corresponding to 556-573 ([…]) (SEQ ID NO:65), was phosphorylated by 10 U of AMPK for 5 h at 30° C. The reaction mixtures were passed through on a Dowex AG1X8 column (0.5 cm×5 cm) which had been equilibrated with 30% acetic acid to remove residual [^32P]-ATP. The labeled peptides in the pass through fraction were lyophilized.
(§2) Protein phosphatase activity was determined by the method of Deana et al (Deana et al. (1990) Biochem, Biophys. Acta. 1051: 199-202). The reaction mixture contained in a final volume of 50 μ1,20 mM MOPS, pH 7.0, 1 mM DTT, 25 μg of BSA, and ^32P-labeled substrate for 15 min at 30° C. The reaction was terminated by the addition of 10% trichloroacetic acid. Phosphate released was converted to a phosphomolybdic complex followed by organic solvent (isobutyl alcohol:heptane, 1:1) extraction of the complex. The reaction mixture was mixed thoroughly and centrifuged. An aliquot of the top layer was then added to 5 ml scintillation fluid and counted. One unit of protein phosphatase is defined as that amount which catalyzes the release of 1.0 μmol of ^32P/min at 30° C.
(§3) These peptides were assayed with Mono Q purified cytosolic and nuclear PPases in the presence and absence of 50 μM Xu-5-P.

[2] = target: T2, nuclear Xu-5-P activated PPase (Rattus norvegicus, UniProt P63331); assay: Protein phosphatase assay, nuclear Xu-5-P activated PPase of liver; assay type: biochemical; details: read-out: inhibition of nuclear Xu-5-P-activated PPase (Mono Q eluate); for inhibition at 0.001 µM: 1 nM okadaic acid, P3 substrate
T2 construct: from tissue; host or cells: rat liver nuclear extract, DEAE-cellulose then Mono Q
Description: Liver nuclear extracts were prepared as described in Example 1.
as §1, §2, §3

T2 sequence (P63331 whole entry): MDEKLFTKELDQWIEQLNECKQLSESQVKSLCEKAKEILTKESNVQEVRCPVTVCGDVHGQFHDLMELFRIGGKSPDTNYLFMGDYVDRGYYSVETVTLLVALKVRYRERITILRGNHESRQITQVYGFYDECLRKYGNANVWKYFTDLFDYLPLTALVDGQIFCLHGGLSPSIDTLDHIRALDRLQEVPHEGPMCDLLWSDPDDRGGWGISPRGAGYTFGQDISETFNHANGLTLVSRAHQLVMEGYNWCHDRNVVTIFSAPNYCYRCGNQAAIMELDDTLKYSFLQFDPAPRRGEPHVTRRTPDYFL
T2 sequence (P56932 whole entry partner): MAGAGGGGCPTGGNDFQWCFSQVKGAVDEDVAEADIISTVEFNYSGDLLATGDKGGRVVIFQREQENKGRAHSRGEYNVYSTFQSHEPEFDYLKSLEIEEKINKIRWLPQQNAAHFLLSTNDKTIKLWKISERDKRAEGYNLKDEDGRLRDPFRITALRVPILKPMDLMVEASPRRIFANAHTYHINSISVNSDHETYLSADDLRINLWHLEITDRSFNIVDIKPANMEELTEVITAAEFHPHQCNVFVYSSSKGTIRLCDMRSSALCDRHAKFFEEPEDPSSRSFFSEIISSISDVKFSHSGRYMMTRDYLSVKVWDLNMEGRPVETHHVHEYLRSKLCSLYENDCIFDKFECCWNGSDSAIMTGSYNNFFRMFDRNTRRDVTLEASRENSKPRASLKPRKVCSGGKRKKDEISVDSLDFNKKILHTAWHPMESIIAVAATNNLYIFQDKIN
T2 sequence (Q5XI34 1-589 partner): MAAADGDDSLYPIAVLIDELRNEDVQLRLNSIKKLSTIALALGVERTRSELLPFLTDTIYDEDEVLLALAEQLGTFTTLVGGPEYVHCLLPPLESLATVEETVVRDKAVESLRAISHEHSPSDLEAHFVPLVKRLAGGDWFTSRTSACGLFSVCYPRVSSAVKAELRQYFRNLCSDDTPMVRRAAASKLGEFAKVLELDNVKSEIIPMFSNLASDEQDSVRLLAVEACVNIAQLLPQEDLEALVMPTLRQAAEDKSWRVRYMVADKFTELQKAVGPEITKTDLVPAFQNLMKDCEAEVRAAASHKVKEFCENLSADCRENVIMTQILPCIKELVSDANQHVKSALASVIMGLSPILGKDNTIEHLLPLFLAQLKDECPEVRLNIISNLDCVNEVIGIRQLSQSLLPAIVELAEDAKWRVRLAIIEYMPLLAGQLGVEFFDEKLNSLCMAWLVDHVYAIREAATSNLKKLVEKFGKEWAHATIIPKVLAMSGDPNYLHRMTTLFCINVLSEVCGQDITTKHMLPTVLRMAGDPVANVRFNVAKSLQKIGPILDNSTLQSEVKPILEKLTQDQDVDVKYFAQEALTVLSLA
T1 sequence (P63331 whole entry): as the sequence (P63331 whole entry) above
T1 sequence (P56932 whole entry partner): as the sequence (P56932 whole entry partner) above
T1 sequence (Q5XI34 1-589 partner): as the sequence (Q5XI34 1-589 partner) above
Chain of PP2A (P67775 whole entry): as the sequence (P63331 whole entry) above, with L5V counted along it

C=C1[C@@H](O)[C@@H]2O[C@]3(CC[C@H](/C=C/[C@@H](C)[C@@H]4CC(C)=C[C@@]5(O[C@H](C[C@@](C)(O)C(=O)O)CC[C@H]5O)O4)O3)CC[C@H]2O[C@@H]1[C@@H](O)C[C@H](C)[C@H]1O[C@@]2(CCCCO2)CC[C@H]1C [okadaic acid]
IC50 (PP2A): 1 nM | reactivation of phosphorylated ChREBP by PP2A (ChREBP): blocked | inhibition of cytosolic PPase (MonoQ eluate) ([1]; absence of Xu-5-P): approximately 65% | inhibition of cytosolic Xu-5-P activated PPase (in words) ([1]; okadaic acid 10 nM (absence and presence of Xu-5-P), cantharidic acid 500 nM, deltamethrin 300 nM): completely | inhibition of cytosolic PPase (MonoQ eluate) ([1]; presence of Xu-5-P): ~50% | inhibition at 0.001 µM ([2]; absence of Xu-5-P): 63% | inhibition at 0.001 µM ([2]; presence of Xu-5-P): 70% | inhibition at 0.01 µM ([2]; 10 nM okadaic acid): > 95%

— patent US20030124590A1, “Carbohydrate response element binding protein and uses thereof” (priority 2001, published 2003)
